According to patent publication US11530222B2, “Substituted pyrrolopyrimidine and pyrazolopyrimidine as Bruton's tyrosine kinase (BTK) degraders” (ACCUTAR BIOTECHNOLOGY INC., priority 2021, dated 2022):

Target: T1, BTK (Homo sapiens, UniProt Q06187)
T1 construct: BTK Degradative Activity of Exemplary Compounds of the Present Disclosure in a RAMOS Cell Line; host or cells: RAMOS
Test: BTK degradative activity in a RAMOS cell line (Western blot)
Format: cell-based
Conditions: 6 hours after administration, read-out: RAMOS BTK Degradation DC50
Protocol: RAMOS (ATCC) cells were plated in 24-well plates at 8×10^5 cells/well in the RPMI growth medium containing 10% heat-inactivated FBS and 1× Penicillin Streptomycin, and then incubated at 37° C. overnight. The following day, the test compound was administered to the cells by using 1000× compound stock solution prepared in DMSO at various concentrations. After administration of the compound, the cells were then incubated at 37° C. for 6 hours.
Upon completion, the cells were collected by centrifugation and lysed in Laemmli sample buffer (1×; VWR International). Proteins in cell lysate were separated by SDS-PAGE and transferred to Odyssey nitrocellulose membranes (Licor) with Iblot® dry blotting transfer system (ThermoFisher). Nonspecific binding was blocked by incubating membranes with Intercept Blocking Buffer (Licor) for 1 hour at room temperature with gentle shaking. The membranes were then incubated overnight at 4° C. with primary antibodies anti-BTK (Cell signaling, cat. #8547) and anti-GAPDH (Cell signaling, cat. #5179) diluted in Intercept Blocking Buffer containing 0.1% Tween 20. After washing 3 times with TBS-T, the membranes were incubated with IRDye® 800CW goat anti-mouse IgG (1:20,000, Licor) or IRDye® 800CW goat anti-rabbit IgG (1:20,000, Licor) for 1 hour. After TBS-T washes, membranes were rinsed in TBS and scanned on Odyssey® CLx Imaging System (Licor). The bands were quantified using Image Studio™ Software (Licor).
Table 3 summarizes the BTK degradative activity of exemplary compounds of the present disclosure in a RAMOS cell line 6 hours after administration. The DC50 values (i.e., the concentration of test compound at which 50% of the target protein is degraded) were calculated. A designation of “A” corresponds to a DC50 value less than 10 nM. A designation of “B” corresponds to a DC50 value greater than or equal to 10 nM and less than 100 nM. A designation of “C” corresponds to a DC50 value greater than or equal to 100 nM.

T1 sequence (Q06187 whole entry): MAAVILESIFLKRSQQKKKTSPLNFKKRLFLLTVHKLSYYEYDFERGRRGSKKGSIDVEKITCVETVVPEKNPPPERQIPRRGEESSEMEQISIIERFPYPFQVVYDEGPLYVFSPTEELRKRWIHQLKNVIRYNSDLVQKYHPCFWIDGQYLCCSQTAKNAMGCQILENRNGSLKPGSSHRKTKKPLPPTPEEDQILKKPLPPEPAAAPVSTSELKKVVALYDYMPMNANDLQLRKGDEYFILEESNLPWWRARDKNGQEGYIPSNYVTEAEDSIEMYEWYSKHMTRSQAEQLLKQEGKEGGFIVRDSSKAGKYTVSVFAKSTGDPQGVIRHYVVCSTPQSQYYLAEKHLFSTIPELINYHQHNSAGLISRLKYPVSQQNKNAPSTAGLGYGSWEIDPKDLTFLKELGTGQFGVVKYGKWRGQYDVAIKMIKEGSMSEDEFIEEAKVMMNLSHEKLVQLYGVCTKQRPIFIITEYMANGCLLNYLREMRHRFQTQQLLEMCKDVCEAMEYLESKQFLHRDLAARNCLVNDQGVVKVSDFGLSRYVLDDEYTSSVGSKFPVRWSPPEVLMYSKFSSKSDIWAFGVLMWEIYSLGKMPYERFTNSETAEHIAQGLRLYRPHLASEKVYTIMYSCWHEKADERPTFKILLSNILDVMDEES

| Compound | DC50 [nM] |
| --- | --- |
| O=C1CCC(N2C(=O)c3ccc(N4CCN(CCCC(=O)N5CCC[C@@H](Nc6ncnc7[nH]cc(C(=O)c8ccc(Oc9ccccc9)cc8Cl)c67)C5)CC4)cc3C2=O)C(=O)N1 (stereo partly drawn) [Compound 19, 5-(4-(4-((R)-3-((5-(2-chloro-4-phenoxybenzoyl)-7H-pyrrolo[2,3-d]pyrimidin-4-yl)amino)piperidin-1-yl)-4-oxobutyl)piperazin-1-yl)-2-(2,6-dioxopiperidin-3-yl)isoindoline-1,3-dione] | 10 to 100 |
| O=C1CC[C@H](N2Cc3cc(N4CCN(CCCC(=O)N5CCC[C@@H](Nc6ncnc7[nH]cc(C(=O)c8ccc(Oc9ccccc9)cc8Cl)c67)C5)CC4)ccc3C2=O)C(=O)N1 [Compound 20, (S)-3-(5-(4-(4-((R)-3-((5-(2-chloro-4-phenoxybenzoyl)-7H-pyrrolo[2,3-d]pyrimidin-4-yl)amino)piperidin-1-yl)-4-oxobutyl)piperazin-1-yl)-1-oxoisoindolin-2-yl)piperidine-2,6-dione] | 10 to 100 |
| O=C1CC[C@H](N2Cc3cc(N4CCN(CCCCCCC(=O)N5CCC(Nc6ncnc7[nH]cc(C(=O)c8ccc(Oc9ccccc9)cc8Cl)c67)CC5)CC4)ccc3C2=O)C(=O)N1 [Compound 21, (S)-3-(5-(4-(7-(4-((5-(2-chloro-4-phenoxybenzoyl)-7H-pyrrolo[2,3-d]pyrimidin-4-yl)amino)piperidin-1-yl)-7-oxoheptyl)piperazin-1-yl)-1-oxoisoindolin-2-yl)piperidine-2,6-dione] | 10 to 100 |
| O=C1CC[C@H](N2C(=O)c3ccc(N4CCN(CCCCCCC(=O)N5CCC(Nc6ncnc7[nH]cc(C(=O)c8ccc(Oc9ccccc9)cc8Cl)c67)CC5)CC4)cc3C2=O)C(=O)N1 [Compound 22, 5-(4-(7-(4-((5-(2-chloro-4-phenoxybenzoyl)-7H-pyrrolo[2,3-d]pyrimidin-4-yl)amino)piperidin-1-yl)-7-oxoheptyl)piperazin-1-yl)-2-(2,6-dioxopiperidin-3-yl)isoindoline-1,3-dione] | 10 to 100 |
| O=C1CCC(N2C(=O)c3ccc(N4CCN(CCCC(=O)N5CCC(Nc6ncnc7[nH]cc(C(=O)c8ccc(Oc9ccccc9)cc8Cl)c67)CC5)CC4)cc3C2=O)C(=O)N1 (stereo not drawn) [Compound 23, 5-(4-(4-(4-((5-(2-chloro-4-phenoxybenzoyl)-7H-pyrrolo[2,3-d]pyrimidin-4-yl)amino)piperidin-1-yl)-4-oxobutyl)piperazin-1-yl)-2-(2,6-dioxopiperidin-3-yl)isoindoline-1,3-dione] | 10 to 100 |
| O=C1CC[C@H](N2Cc3cc(N4CCN(CCCC(=O)N5CCC(Nc6ncnc7[nH]cc(C(=O)c8ccc(Oc9ccccc9)cc8Cl)c67)CC5)CC4)ccc3C2=O)C(=O)N1 [Compound 24, (S)-3-(5-(4-(4-(4-((5-(2-chloro-4-phenoxybenzoyl)-7H-pyrrolo[2,3-d]pyrimidin-4-yl)amino)piperidin-1-yl)-4-oxobutyl)piperazin-1-yl)-1-oxoisoindolin-2-yl)piperidine-2,6-dione] | 10 to 100 |
| O=C1CC[C@H](N2Cc3cc(N4CCN(CCCCC(=O)N5CCC(Nc6ncnc7[nH]cc(C(=O)c8ccc(Oc9ccccc9)cc8Cl)c67)CC5)CC4)ccc3C2=O)C(=O)N1 [Compound 25, (S)-3-(5-(4-(5-(4-((5-(2-chloro-4-phenoxybenzoyl)-7H-pyrrolo[2,3-d]pyrimidin-4-yl)amino)piperidin-1-yl)-5-oxopentyl)piperazin-1-yl)-1-oxoisoindolin-2-yl)piperidine-2,6-dione] | < 10 |
| O=C1CCC(N2C(=O)c3ccc(N4CCN(CCCN5CCC(Nc6ncnc7[nH]cc(C(=O)c8ccc(Oc9ccccc9)cc8Cl)c67)CC5)CC4)cc3C2=O)C(=O)N1 (stereo not drawn) [Compound 26, 5-(4-(3-(4-((5-(2-chloro-4-phenoxybenzoyl)-7H-pyrrolo[2,3-d]pyrimidin-4-yl)amino)piperidin-1-yl)propyl)piperazin-1-yl)-2-(2,6-dioxopiperidin-3-yl)isoindoline-1,3-dione] | 10 to 100 |
| O=C1CCC(N2C(=O)c3ccc(N4CCN(CCCCN5CCC(Nc6ncnc7[nH]cc(C(=O)c8ccc(Oc9ccccc9)cc8Cl)c67)CC5)CC4)cc3C2=O)C(=O)N1 (stereo not drawn) [Compound 27, 5-(4-(4-(4-((5-(2-chloro-4-phenoxybenzoyl)-7H-pyrrolo[2,3-d]pyrimidin-4-yl)amino)piperidin-1-yl)butyl)piperazin-1-yl)-2-(2,6-dioxopiperidin-3-yl)isoindoline-1,3-dione] | 10 to 100 |
| O=C1CCC(N2C(=O)c3ccc(N4CCN(CCCCCC(=O)N5CCC(Nc6ncnc7[nH]cc(C(=O)c8ccc(Oc9ccccc9)cc8Cl)c67)CC5)CC4)cc3C2=O)C(=O)N1 (stereo not drawn) [Compound 28, 5-(4-(6-(4-((5-(2-chloro-4-phenoxybenzoyl)-7H-pyrrolo[2,3-d]pyrimidin-4-yl)amino)piperidin-1-yl)-6-oxohexyl)piperazin-1-yl)-2-(2,6-dioxopiperidin-3-yl)isoindoline-1,3-dione] | 10 to 100 |
| O=C1CCC(N2C(=O)c3ccc(N4CCN(CCCCCCCN5CCC[C@@H](Nc6ncnc7[nH]cc(C(=O)c8ccc(Oc9ccccc9)cc8Cl)c67)C5)CC4)cc3C2=O)C(=O)N1 (stereo partly drawn) [Compound 29, 5-(4-(7-((R)-3-((5-(2-chloro-4-phenoxybenzoyl)-7H-pyrrolo[2,3-d]pyrimidin-4-yl)amino)piperidin-1-yl)heptyl)piperazin-1-yl)-2-(2,6-dioxopiperidin-3-yl)isoindoline-1,3-dione] | 10 to 100 |
| O=C1CCC(N2C(=O)c3ccc(N4CCN(CCCCCN5CCC[C@@H](Nc6ncnc7[nH]cc(C(=O)c8ccc(Oc9ccccc9)cc8Cl)c67)C5)CC4)cc3C2=O)C(=O)N1 (stereo partly drawn) [Compound 30, 5-(4-(5-((R)-3-((5-(2-chloro-4-phenoxybenzoyl)-7H-pyrrolo[2,3-d]pyrimidin-4-yl)amino)piperidin-1-yl)pentyl)piperazin-1-yl)-2-(2,6-dioxopiperidin-3-yl)isoindoline-1,3-dione] | ≥ 100 |
| O=C1CCC(N2C(=O)c3ccc(N4CCN(CCCCC(=O)N5CCC(Nc6ncnc7[nH]cc(C(=O)c8ccc(Oc9ccccc9)cc8Cl)c67)CC5)CC4)cc3C2=O)C(=O)N1 (stereo not drawn) [Compound 31, 5-(4-(5-(4-((5-(2-chloro-4-phenoxybenzoyl)-7H-pyrrolo[2,3-d]pyrimidin-4-yl)amino)piperidin-1-yl)-5-oxopentyl)piperazin-1-yl)-2-(2,6-dioxopiperidin-3-yl)isoindoline-1,3-dione] | 10 to 100 |
| O=C1CC[C@H](N2Cc3cc(N4CCN(CC5CCN(C(=O)N6CCC[C@@H](Nc7ncnc8[nH]cc(C(=O)c9ccc(Oc%10ccccc%10)cc9Cl)c78)C6)CC5)CC4)ccc3C2=O)C(=O)N1 [Compound 32, (S)-3-(5-(4-((1-((R)-3-((5-(2-chloro-4-phenoxybenzoyl)-7H-pyrrolo[2,3-d]pyrimidin-4-yl)amino)piperidine-1-carbonyl)piperidin-4-yl)methyl)piperazin-1-yl)-1-oxoisoindolin-2-yl)piperidine-2,6-dione] | 10 to 100 |
| O=C1CC[C@H](N2C(=O)c3ccc(N4CCN(CC5CCN(C(=O)N6CCC[C@@H](Nc7ncnc8[nH]cc(C(=O)c9ccc(Oc%10ccccc%10)cc9Cl)c78)C6)CC5)CC4)cc3C2=O)C(=O)N1 [Compound 33, 5-(4-((1-((R)-3-((5-(2-chloro-4-phenoxybenzoyl)-7H-pyrrolo[2,3-d]pyrimidin-4-yl)amino)piperidine-1-carbonyl)piperidin-4-yl)methyl)piperazin-1-yl)-2-((S)-2,6-dioxopiperidin-3-yl)isoindoline-1,3-dione] | 10 to 100 |
